Experimental data as given in patent US11226337B2, “Chemoproteomic profiling of protein electrophilic and oxidative post-translational modifications” (Zenagem, LLC, priority 2017, dated 2022).

What was measured:
[1] = biological target: T1, P4HA2 Prolyl 4hydroxylase subunit alpha2 (O15460) (Homo sapiens, UniProt O15460); test: SILAC RP-ABPP; format: cell-based; details: SILAC H/L, MDA-MB-231
T1 construct: endogenous in cells; host or cells: HEK293T or MDA-MB-231
Method in brief: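 Heavy SILAC HEK293T or MDA-MB-231 cells were treated with a clickable hydrazine probe; light cells received the non-clickable analogue (enrichment) or the probe plus 10-fold excess non-clickable competitor (competition). Mixed proteomes underwent CuAAC with 100 μM biotin-azide for 1 h. Heavy:light ratios were taken as median peptide ratios (≥3 peptides) averaged over ≥3 replicates.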

[2] = system: lung, brain and liver tissue; test: in vivo probe labelling, in-gel fluorescence of tissue proteomes; design: species or system mice; details: i.p., four hours; soluble and membrane proteomes
Protocol: Studies were conducted to determine whether probes can be used to label proteins in vivo. Mice were injected intraperitoneally (i.p,) with hydrazine probe 2. After treatment with probes for four hours, lung, brain and liver tissue was harvested, processed and labeled with rhodamine azide as described in Example 2. Probe labelled proteins were visualized by in-gel fluorescence scanning. The results are shown FIGS. 24A and 24B.

T1 sequence (O15460 22-535): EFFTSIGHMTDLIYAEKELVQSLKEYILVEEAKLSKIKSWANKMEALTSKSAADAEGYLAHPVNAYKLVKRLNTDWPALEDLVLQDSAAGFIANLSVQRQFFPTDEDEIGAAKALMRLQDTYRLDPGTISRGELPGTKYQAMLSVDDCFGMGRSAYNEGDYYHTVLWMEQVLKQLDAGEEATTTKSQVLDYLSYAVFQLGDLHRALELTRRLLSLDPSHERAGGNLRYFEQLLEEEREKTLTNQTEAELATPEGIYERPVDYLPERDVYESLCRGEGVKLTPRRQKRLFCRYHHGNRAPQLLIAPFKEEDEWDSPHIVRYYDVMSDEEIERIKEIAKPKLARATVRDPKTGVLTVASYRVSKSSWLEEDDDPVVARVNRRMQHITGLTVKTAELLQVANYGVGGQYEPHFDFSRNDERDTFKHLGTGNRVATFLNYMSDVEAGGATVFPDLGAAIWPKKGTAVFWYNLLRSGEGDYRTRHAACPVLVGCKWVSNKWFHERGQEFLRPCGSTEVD
T1 sequence (P07237 18-508 partner): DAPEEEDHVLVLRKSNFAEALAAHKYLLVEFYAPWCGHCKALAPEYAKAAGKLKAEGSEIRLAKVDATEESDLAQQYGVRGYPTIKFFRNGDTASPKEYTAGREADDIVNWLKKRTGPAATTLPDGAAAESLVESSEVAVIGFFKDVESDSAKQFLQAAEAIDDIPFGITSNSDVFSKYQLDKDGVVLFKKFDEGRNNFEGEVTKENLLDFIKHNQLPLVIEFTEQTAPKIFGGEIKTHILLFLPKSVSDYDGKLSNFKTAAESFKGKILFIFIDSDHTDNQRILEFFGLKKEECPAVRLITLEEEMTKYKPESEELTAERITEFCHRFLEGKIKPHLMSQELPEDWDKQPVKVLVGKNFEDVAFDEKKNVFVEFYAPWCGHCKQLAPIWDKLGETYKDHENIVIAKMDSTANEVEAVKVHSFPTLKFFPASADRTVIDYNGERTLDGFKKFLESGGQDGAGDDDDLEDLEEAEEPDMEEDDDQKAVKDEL

enrichment ratioavg ([1]; probe 2 1 mM 0.5 h vs probe 4): 20
competition ratioavg ([1]; probe 2 vs probe 2+10x probe 4): 3
Structure (SMILES): C#CCCNC(=O)c1ccc(NN)cc1.Cl [probe 2, N-(but-3-yn-1-yl)-4-hydrazinylbenzamide hydrochloride]
labelling of proteins in vivo [2]: can be used to label and profile proteins in vivo
